Laboratory results taken from the CheMixHub viscosity set.

Assay: xn = mol fraction of the nth substance listed

ClCCl + CCCCOCCO
298.15 K, 101.3 kPa
Conditions	viscosity [mPa·s]
x1 = 0.0185	2.77
x2 = 0.0035	0.408
x2 = 0.0112	0.413
x2 = 0.0303	0.43
x2 = 0.0521	0.451
x2 = 0.1008	0.503
x2 = 0.1533	0.578
x2 = 0.2175	0.671
x2 = 0.293	0.807
x2 = 0.362	0.943
x2 = 0.4346	1.11
x2 = 0.5707	1.482
x2 = 0.6642	1.753
x2 = 0.7875	2.148
x2 = 0.9049	2.525

COCC(C)OCC(C)OC (stereo not drawn) + CCCCCCCO
Conditions	viscosity [mPa·s]
298.15 K, 101 kPa, x1 = 0.4532	1.895

ClCCl + ClC(Cl)Cl
Conditions	viscosity [mPa·s]
303.15 K, 101.3 kPa, x1 = 0.4966	0.4521

CCC(C)Br (stereo not drawn) + CC(C)(C)O
viscosity [mPa·s], 101.3 kPa
Conditions	x1 = 0.05	x1 = 0.102	x1 = 0.2043	x1 = 0.3044	x1 = 0.4041	x1 = 0.5032	x1 = 0.6203	x1 = 0.7036	x1 = 0.8056	x1 = 0.9064
298.15 K	3.175	2.363	1.519	1.152	0.9576	0.8183	0.7087	0.6532	0.6048	0.5718
313.15 K	1.651	1.36	0.9969	0.8102	0.7146	0.6337	0.5665	0.5317	0.4987	0.4777

CCC(C)Br (stereo not drawn) + CCC(C)O
viscosity [mPa·s], 101.3 kPa
Conditions	x1 = 0.0514	x1 = 0.1041	x1 = 0.2027	x1 = 0.2985	x1 = 0.4321	x1 = 0.5027	x1 = 0.5839	x1 = 0.702	x1 = 0.8019	x1 = 0.9029
298.15 K	2.434	1.986	1.435	1.135	0.8991	0.8084	0.7285	0.6459	0.5996	0.5667
313.15 K	1.495	1.276	1.006	0.8366	0.6849	0.6292	0.5794	0.5282	0.4961	0.4774

ClCCCl + CCOC(C)=O
303.15 K, 101.3 kPa
Conditions	viscosity [mPa·s]
x2 = 0.099	0.679
x2 = 0.2036	0.6354
x2 = 0.3005	0.602
x2 = 0.3976	0.5686
x2 = 0.4996	0.5353
x2 = 0.6025	0.5057
x2 = 0.6983	0.4784
x2 = 0.7998	0.4505
x2 = 0.9034	0.4236

CC(=O)O + Cc1cccc(C)c1
viscosity [mPa·s], 101.3 kPa
Conditions	x2 = 0.1087	x2 = 0.218	x2 = 0.2726	x2 = 0.3467	x2 = 0.4518	x2 = 0.5763	x2 = 0.6567	x2 = 0.7671	x2 = 0.8589
298.15 K	0.952	0.809	0.753	0.7	0.648	0.618	0.603	0.591	0.579
303.15 K	0.861	0.746	0.707	0.655	0.615	0.582	0.568	0.554	0.545
313.15 K	0.777	0.665	0.624	0.58	0.543	0.519	0.507	0.501	0.494
323.15 K	0.687	0.59	0.554	0.518	0.483	0.466	0.459	0.451	0.444

ClCCCl + ClC(Cl)Cl
303.15 K, 101.3 kPa
Conditions	viscosity [mPa·s]
x1 = 0.0711	0.524
x1 = 0.1645	0.5402
x1 = 0.216	0.5493
x1 = 0.3322	0.5723
x1 = 0.4444	0.5947
x1 = 0.5227	0.6115
x1 = 0.6269	0.6349
x1 = 0.7591	0.6659
x1 = 0.7901	0.6733
x1 = 0.8637	0.692
x1 = 0.935	0.7102
